Source: patent publication US20250206732A1, “COMPOUNDS AND METHODS FOR THE TARGETED DEGRADATION OF KRAS” (Arvinas Operations, Inc., priority 2022, published 2025)

Target: T1, AsPC-1 HiBiT-KRASG12D (Homo sapiens, UniProt P01116, G12D)
T1 construct: insert the HiBiT tag onto the N-terminus of one or more of the endogenous KRAS alleles; endogenous in cells; host or cells: AsPC-1 (ATCC CRL-1682), CRISPR-Cas9 knock-in clone, one tagged allele
Assay: HiBiT degradation assay (G12D), AsPC-1 HiBiT-KRASG12D cells
Type: cell-based
Settings: 24 hours treatment; for Dmax: ASPC1, AsPC-1 HiBiT-KRASG12D cells, maximum degradation observed; for DC50: AsPC-1 HiBiT-KRASG12D cells, HiBiT luminescence
How it was run: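 In this degradation format, an engineered AsPC-1 clone with HiBiT fused to the KRAS N-terminus is exposed to compounds for 24 hours, after which remaining tagged protein is quantified by lytic HiBiT luminescence.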

T1 sequence (P01116 1-188 isoform P01116-2 G12D): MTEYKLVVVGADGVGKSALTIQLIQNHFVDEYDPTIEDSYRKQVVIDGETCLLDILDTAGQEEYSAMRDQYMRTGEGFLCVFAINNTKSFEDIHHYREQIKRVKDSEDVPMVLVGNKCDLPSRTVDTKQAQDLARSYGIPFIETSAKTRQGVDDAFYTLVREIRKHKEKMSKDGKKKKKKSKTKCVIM

Structure (SMILES)	Dmax	DC50
CCc1cccc2cc(O)cc(-c3ncc4c(N5CC6CCC(C5)N6)nc(OCCN5CCC(N(C)c6cc([C@@H](C(=O)N7C[C@H](O)C[C@H]7C(=O)N[C@@H](C)c7ccc(-c8scnc8C)cc7)C(C)C)on6)CC5)nc4c3F)c12 (relative stereo) [Compound 137, (2S,4R)-1-[(2R*)-2-{3-[(1-{2-[(4-{3,8-diazabicyclo[3.2.1]octan-3-yl}-7-(8-ethyl-3-hydroxynaphthalen-1-yl)-8-fluoropyrido[4,3-d]pyrimidin-2-yl)oxy]ethyl}piperidin-4-yl)(methyl)amino]-1,2-oxazol-5-yl}-3-methylbutanoyl]-4-hydroxy-N-[(1S)-1-[4-(4-methyl-1,3-thiazol-5-yl)phenyl]ethyl]pyrrolidine-2-carboxamide]	20 to 60%	1000 to 3000 nM
CCc1cccc2cc(O)cc(-c3ncc4c(N5CC6CCC(C5)N6)nc(OC[C@]56CCCN5[C@H](COC(=O)N5CC7(C5)CN(c5cc([C@H](C(=O)N8C[C@H](O)C[C@H]8C(=O)N[C@@H](C)c8ccc(-c9scnc9C)cc8)C(C)C)on5)C7)CC6)nc4c3F)c12 [Compound 340, [(3S,8R)-8-[[4-(3,8-diazabicyclo[3.2.1]octan-3-yl)-7-(8-ethyl-3-hydroxy-1-naphthyl)-8-fluoro-pyrido[4,3-d]pyrimidin-2-yl]oxymethyl]-1,2,3,5,6,7-hexahydropyrrolizin-3-yl]methyl 6-[5-[(1S)-1-[(2S,4R)-4-hydroxy-2-[[(1S)-1-[4-(4-methylthiazol-5-yl)phenyl]ethyl]carbamoyl]pyrrolidine-1-carbonyl]-isobutyl]isoxazol-3-yl]-2,6-diazaspiro[3.3]heptane-2-carboxylate]	80 to 100%	< 600 nM
C#Cc1c(F)ccc2cc(O)cc(-c3ncc4c(N5CC6CCC(C5)N6)nc(OCCN5CCC(C6CN(c7cc([C@H](C(=O)N8C[C@H](O)C[C@H]8C(=O)N[C@@H](C)c8ccc(-c9scnc9C)cc8)C(C)C)on7)C6)CC5)nc4c3F)c12 [Compound 185]	80 to 100%	< 600 nM
CCc1cccc2cc(O)cc(-c3ncc4c(N5CCCCCC5)nc(OC[C@@]56CCCN5[C@H](COC(=O)N5CCN(c7cc([C@H](C(=O)N8C[C@H](O)C[C@H]8C(=O)N[C@@H](C)c8ccc(-c9scnc9C)cc8)C(C)C)on7)[C@H](C)C5)CC6)nc4c3F)c12 [Compound 229, [(3S,8S)-8-[[4-(azepan-1-yl)-7-(8-ethyl-3-hydroxy-1-naphthyl)-8-fluoro-pyrido[4,3-d]pyrimidin-2-yl]oxymethyl]-1,2,3,5,6,7-hexahydropyrrolizin-3-yl]methyl (3R)-4-[5-[(1R)-1-[(2S,4R)-4-hydroxy-2-[[(1S)-1-[4-(4-methylthiazol-5-yl)phenyl]ethyl]carbamoyl]pyrrolidine-1-carbonyl]-2-methyl-propyl]isoxazol-3-yl]-3-methyl-piperazine-1-carboxylate]	80 to 100%	< 600 nM
Cc1ncsc1-c1ccc([C@H](C)NC(=O)[C@@H]2C[C@@H](O)CN2C(=O)[C@@H](c2cc(N3CC4(CCN(CCOc5nc(N6CC7CCC(C6)N7)c6cnc(-c7cc(O)cc8ccc(F)c(F)c78)c(F)c6n5)CC4)C3)no2)C(C)C)cc1 (relative stereo) [Compound 68, (2S,4R)-1-[(2R*)-2-[3-(7-{2-[(4-{3,8-diazabicyclo[3.2.1]octan-3-yl}-7-(7,8-difluoro-3-hydroxynaphthalen-1-yl)-8-fluoropyrido[4,3-d]pyrimidin-2-yl)oxy]ethyl}-2,7-diazaspiro[3.5]nonan-2-yl)-1,2-oxazol-5-yl]-3-methylbutanoyl]-4-hydroxy-N-[(1S)-1-[4-(4-methyl-1,3-thiazol-5-yl)phenyl]ethyl]pyrrolidine-2-carboxamide]	80 to 100%	< 600 nM
CCc1cccc2cc(O)cc(-c3ncc4c(N5CC6CCC(C5)N6)nc(OC[C@]56CCCN5[C@H](COC(=O)N5CCN(c7cc([C@@H](C(=O)N8C[C@H](O)C[C@H]8C(=O)N[C@@H](C)c8ccc(C#N)cc8)C(C)C)on7)CC5)CC6)nc4c3F)c12 [Compound 67, [(3S,7aR)-7a-{[(4-{3,8-diazabicyclo[3.2.1]octan-3-yl}-7-(8-ethyl-3-hydroxynaphthalen-1-yl)-8-fluoropyrido[4,3-d]pyrimidin-2-yl)oxy]methyl}-hexahydro-1H-pyrrolizin-3-yl]methyl 4-{5-[(2S)-1-[(2S,4R)-2-{[(1S)-1-(4-cyanophenyl)ethyl]carbamoyl}-4-hydroxypyrrolidin-1-yl]-3-methyl-1-oxobutan-2-yl]-1,2-oxazol-3-yl}piperazine-1-carboxylate]	–	> 3000 nM
CCc1cccc2cc(O)cc(-c3ncc4c(N5CC6CCC(C5)N6)nc(OC[C@@]56CCCN5[C@H](COC(=O)N5CCN(c7cc([C@@H](C(=O)N8C[C@H](O)C[C@H]8C(=O)N[C@@H](C)c8ccc(-c9scnc9C)cc8)C(C)C)on7)C[C@@H]5C)CC6)nc4c3F)c12 [Compound 326, [(3S,8S)-8-[[4-(3,8-diazabicyclo[3.2.1]octan-3-yl)-7-(8-ethyl-3-hydroxy-1-naphthyl)-8-fluoro-pyrido[4,3-d]pyrimidin-2-yl]oxymethyl]-1,2,3,5,6,7-hexahydropyrrolizin-3-yl]methyl (2S)-4-[5-[(1S)-1-[(2S,4R)-4-hydroxy-2-[[(1S)-1-[4-(4-methylthiazol-5-yl)phenyl]ethyl]carbamoyl]pyrrolidine-1-carbonyl]-isobutyl]isoxazol-3-yl]-2-methyl-piperazine-1-carboxylate]	< 20%	< 600 nM
C#Cc1c(F)ccc2cc(O)cc(-c3ncc4c(N5CC6CCC(C5)N6)nc(OCCN5CCC(COc6cc([C@H](C(=O)N7C[C@H](O)C[C@H]7C(=O)N[C@@H](C)c7ccc(-c8ccnn8C)cc7)C(C)C)on6)CC5)nc4c3F)c12 (relative stereo) [Compound 85, (2S,4R)-1-[(2R*)-2-{3-[(1-{2-[(4-{3,8-diazabicyclo[3.2.1]octan-3-yl}-7-(8-ethynyl-7-fluoro-3-hydroxynaphthalen-1-yl)-8-fluoropyrido[4,3-d]pyrimidin-2-yl)oxy]ethyl}piperidin-4-yl)methoxy]-1,2-oxazol-5-yl}-3-methylbutanoyl]-4-hydroxy-N-[(1S)-1-[4-(1-methyl-1H-pyrazol-5-yl)phenyl]ethyl]pyrrolidine-2-carboxamide]	80 to 100%	< 600 nM
CCc1cccc2cc(O)cc(-c3ncc4c(N5CC6CCC(C5)N6)nc(OCCN5CCC(CC6CN(c7cc([C@H](C(=O)N8C[C@H](O)C[C@H]8C(=O)N[C@@H](C)c8ccc(-c9ccnn9C)cc8)C(C)C)on7)C6)CC5)nc4c3F)c12 (single isomer, unassigned) [Compound 264, (2S,4R)-1-[(2R*)-2-(3-{3-[(1-{2-[(4-{3,8-diazabicyclo[3.2.1]octan-3-yl}-7-(8-ethyl-3-hydroxynaphthalen-1-yl)-8-fluoropyrido[4,3-d]pyrimidin-2-yl)oxy]ethyl}piperidin-4-yl)methyl]azetidin-1-yl}-1,2-oxazol-5-yl)-3-methylbutanoyl]-4-hydroxy-N-[(1S)-1-[4-(1-methyl-1H-pyrazol-5-yl)phenyl]ethyl] pyrrolidine-2-carboxamide]	80 to 100%	< 600 nM
CCc1cccc2cc(O)cc(-c3ncc4c(N5CC6CCC(C5)N6)nc(OCCN5CC[C@H]6CN(c7cc([C@@H](C(=O)N8C[C@H](O)C[C@H]8C(=O)N[C@@H](C)c8ccc(-c9scnc9C)cc8)C(C)C)on7)C[C@H]6C5)nc4c3F)c12 (relative stereo) [Compound 70, (2S,4R)-1-[(2R*)-2-{3-[(3aR**,7aR***)-5-{2-[(4-{3,8-diazabicyclo[3.2.1]octan-3-yl}-7-(8-ethyl-3-hydroxynaphthalen-1-yl)-8-fluoropyrido[4,3-d]pyrimidin-2-yl)oxy]ethyl}-octahydro-1H-pyrrolo[3,4-c]pyridin-2-yl]-1,2-oxazol-5-yl}-3-methylbutanoyl]-4-hydroxy-N-[(1S)-1-[4-(4-methyl-1,3-thiazol-5-yl)phenyl]ethyl]pyrrolidine-2-carboxamide]	–	> 3000 nM
CCc1cccc2cc(O)cc(-c3ncc4c(N5CC6CCC(C5)N6)nc(OC[C@]56CCCN5[C@H](COC(=O)N5CCN(c7cc([C@H](C(=O)N8C[C@H](O)C[C@H]8C(=O)N[C@@H](C)c8ccc(-c9scnc9C)cc8)C(C)C)on7)[C@H](C)C5)CC6)nc4c3F)c12 [Compound 130, [(3S,7aR)-7a-{[(4-{3,8-diazabicyclo[3.2.1]octan-3-yl}-7-(8-ethyl-3-hydroxynaphthalen-1-yl)-8-fluoropyrido[4,3-d]pyrimidin-2-yl)oxy]methyl}-hexahydro-1H-pyrrolizin-3-yl]methyl (3R)-4-{5-[(2R)-1-[(2S,4R)-4-hydroxy-2-{[(1S)-1-[4-(4-methyl-1,3-thiazol-5-yl)phenyl]ethyl]carbamoyl}pyrrolidin-1-yl]-3-methyl-1-oxobutan-2-yl]-1,2-oxazol-3-yl}-3-methylpiperazine-1-carboxylate]	80 to 100%	< 600 nM
C#Cc1c(F)ccc2cccc(-c3ncc4c(N5CC6CCC(C5)N6)nc(OC[C@]56CCCN5[C@H](COC(=O)N5CCN(c7cc([C@H](C(=O)N8C[C@H](O)C[C@H]8C(=O)N[C@@H](C)c8ccc(-c9scnc9C)cc8)C(C)C)on7)CC5)CC6)nc4c3F)c12 [Compound 53, [(3S,7aR)-7a-{[(4-{3,8-diazabicyclo[3.2.1]octan-3-yl}-7-(8-ethynyl-7-fluoronaphthalen-1-yl)-8-fluoropyrido[4,3-d]pyrimidin-2-yl)oxy]methyl}-hexahydro-1H-pyrrolizin-3-yl]methyl 4-{5-[(2R)-1-[(2S,4R)-4-hydroxy-2-{[(1S)-1-[4-(4-methyl-1,3-thiazol-5-yl)phenyl]ethyl]carbamoyl}pyrrolidin-1-yl]-3-methyl-1-oxobutan-2-yl]-1,2-oxazol-3-yl}piperazine-1-carboxylate]	80 to 100%	< 600 nM
